# Assay results: patent US20010012854A1, “MULTICATALYTIC PROTEASE INHIBITORS FOR USE AS ANTI-TUMOR AGENTS” (priority 1997, published 2001)
# Key:
# [1] = system: Jurkat cells transfected with a control vector; experiment: Apoptotic nuclear changes (Hoechst staining) in Jurkat cells transfected with control vector; type: cell-based, human
# Protocol: (§1) b. Cell culture. Human Jurkat T and HL-60 cells were grown in RPMI 1640 (Life Technologies, Inc.) supplemented with 10% fetal calf serum (Sigma), 100 units/ml of penicillin, 100 μg/ml of streptomycin and 2mM L-glutamine (growth medium). Jurkat T. cells overexpressing the Bcl-2 oncoprotein or vector alone (provided by Dr. D. Johnson, University of Pittsburgh, Pa.) were grown in the same growth medium with […] G418. Human cancer cell lines of breast (MCF-7, MDA-MB-231), prostate (DU145, PC3) and osteosarcoma (U2-OS), obtained from American Type Culture Collection (ATCC. Rockville, Md.)), were also grown in the RPMI growth medium. Human oral (SCC-25; from ATCC) and brain (SNB-19; Welch, W. C., et al. In Vitro Cell. Dev. Biol., 31:610-616, 1995) cancer cell lines, and normal (WI-38) and SV40-transformed human fibroblasts (WI-38 VA-13; from ATCC) were grown in DMEM medium containing 10% fetal calf serum, penicillin, streptomycin and L-glutamine.
# (§2) d. Flow cytometry nuclear staining and DNA fragmentation assays. DNA content analysis using flow cytometry was performed as described previously (Nicoletti, I., et al. J. Immunol. Methods 139:271-279, 1992). To assay nuclear morphology, cells were washed with PBS, fixed with 70% ethanol for 1 h, and stained with Hoechst 33258 (1 mM) for 30 min. The nuclear morphology of cells was visualized by fluorescence microscope (OLYMPUS BH2). DNA fragmentation was assayed as described previously (Grant, S., et al. Cancer Res. 52:6270-6278, 1992).
# The apoptosis-inducing potency of Compound A was compared with two standard chemotherapeutic anti-cancer agents, etoposide and cisplatin. […] By comparison, treatment with 50 μM etoposide for 8 h induced only ˜47% of these cells to undergo apoptosis (FIG. 3, panels c vs. a). Treatment of 10 μM Compound A, but not etoposide or cisplatin, induced apoptosis in human prostate, breast, tongue and brain cancer cells and also in SV40 DNA virus-transformed human fibroblasts (see FIGS. 5-7).
# [2] = system: SV40-transformed human fibroblasts (WI-38 VA13); experiment: Detachment, apoptotic nuclear changes and PARP cleavage in SV40-transformed fibroblasts; type: cell-based
# Protocol: (§3) c. Treatment of cells with MCP inhibitor. Cells were treated with a specified MCP Inhibitor, a standard anticancer agent (etoposide or cisplatin), or DMSO (vehicle). During this process, morphological changes and cellular detachment (for attached cell lines) were monitored. At each time point, cells were harvested, and used for measurement of apoptosis and other biochemical events. In Example 1, infra, involving YVAD-CMK, Compound A was first added to Jurkat T cells. This was followed immediately by dividing the cells into multiple tissue culture flasks. YVAD-CMK was then added to an indicated concentration.
# as §2
# (§4) e. Whole cell extracts and western blot assay. To prepare whole cell extracts, cells were washed with PBS, and homogenized in lysis buffer (50 mM Tris, pH 8.0, 5 mM EDTA, 150 mM NaCl, 0.5% Nonidet P-40, 0.5 mM PMSF and 0.5 mM dithiothreitol). Following 30 min rocking at 4° C., the lysates were centrifuged and the supernatants were collected as whole cell extracts. The protein samples were then analyzed by sodium dodecyl sulfate-6% polyacrylamide gel electrophoresis (20-60 μg protein per lane) followed by the enhanced chemiluminescence Western blot assay using specific antibodies to CPP32, PARP, p21, p27 or RB.
# Whether Compound A has, any selectivity in induction of apoptosis between transformed and normal cells was investigated. Normal human fibroblast cell line (WI-38) and its SV40-transformed derivative (WI-38 VA13) were utilized. […]
# [3] = system: p21 and p27 in SV-40 transformed WI-38 fibroblasts; experiment: Western blot of p21 and p27 levels in SV-40 transformed WI-38 fibroblasts; type: cell-based, human; settings: SV-40 transformed WI-38, 10 μM, 22 hours
# Protocol: as §4
# The accumulation of p21 and p27 following treatment with Compound A was also evaluated in SV-40 transformed and normal WI-38 fibroblasts.
# [4] = biological target: MCP chymotrypsin-like activity (Homo sapiens, UniProt P28074); settings: literature values (Iqbal et al.; Rock et al.); read-out: Ki toward the proteasome chymotrypsin-like activity; cited from earlier work
# [5] = system: glioblastoma cell line SNB-19; experiment: Detachment and apoptosis in SNB-19 cells; type: cell-based, human
# Protocol: as §3, §2
# [6] = system: p21 and p27 in human breast cancer MDA-MB-231 cells; experiment: Western blot of p21 and p27 levels in MDA-MB-231 cells; type: cell-based; settings: MDA-MB-231, 15 μM, 6 hours
# Protocol: as §4
# Additionally, a band of 70 kDa whih may represent ubiquinated p70 was also observed. In contrast, etoposide caused only limited accumulation of p21 (≦4-fold) and p27 (≦2-fold) at 17 hours when used at concentrations up to 100 μM.
# [7] = system: human breast cancer MCF-7 cells; experiment: Detachment and apoptotic nuclear changes in MCF-7 cells; type: cell-based; settings: MCF-7, 24 h
# Protocol: as §3, §2
# Detachment was also found in at least half of human breast cancer MDA-MB-231 and MCF-7 cells, after exposure to Compound A for 24 h.
# [8] = system: Human prostate cancer PC-3 cells; experiment: Detachment and apoptotic nuclear changes in PC-3 cells; type: cell-based; settings: PC-3, 10 μM, 36 h
# Protocol: as §3, §2
# Human prostate cancer PC-3 cells were treated with 10 μM Compound A, etoposide, or an equal percentage of vehicle (DMSO), followed by separation of the attached and detached cell populations. Both attached and detached cell populations were then used for detection of apoptotic nuclear changes. After 36 h treatment with Compound A, ˜50% of PC-3 cells became detached.
# [9] = system: oral aquamous carcinoma cell line SCC-25; experiment: Detachment and apoptosis in SCC-25 cells; type: cell-based, human
# Protocol: as §3, §2
# [10] = system: Bcl-2-overexpressing Jurkat cells; experiment: Apoptosis in Bcl-2-overexpressing Jurkat cells (nuclear staining, western blot); type: cell-based, human
# Protocol: as §1, §2, §4
# It has been shown that overexpression of Bcl-2 oncoprotein inhibits apoptosis in many cell systems (Miura, M., et al., J. Cell 75: 653-660, 1993). Bcl-2 expression in human Jurkat T cells for inhibition of Compound A-induced apoptosis was investigated.
structure (smiles),measurement,setting,value
CC(C)C[C@@H](C=O)NC(=O)[C@@H](CCCNC(=N)N[N+](=O)[O-])NC(=O)C(CCCCCCCCN1C(=O)c2ccccc2C1=O)C1CCCC1 (some centres unmarked) [Compound A],Cells exhibiting apoptotic nuclear morphology,"[1]; 15 μM, 8 h",30%
same,Cells exhibiting apoptotic nuclear changes,"[1]; 30 μM, 3.5 h",~100%
same,PARP cleavage,"[2]; SV40-transformed WI-38, total cell population",observed only in the transformed
same,Detachment and apoptotic nuclear changes,"[2]; WI-38 VA13, 10 μM, up to 22 h",induced a detachment in the majority of SV40-transformed cells
same,Elevation of p27 levels,[3],8 fold
same,Ki,[4],< 2 nM
same,Induction of cellular detachment and apoptosis,[5],induced cellular detachment and apoptosis
same,Increase in level of p21,[6],45 fold
same,Levels of p27,[6],slightly increased
same,Apoptosis by nuclear staining,[7],apoptotic morphology in all of the detached and most of the attached cells
same,Detached cells,[7],at least half
same,Detached cells,[8],~50%
same,Nuclear morphology (apoptotic condensation and fragmentation),[8],All the detached PC-3 cells exhibited typical apoptotic nuclear condensation and fragmentation
same,Induction of cellular detachment and apoptosis,[9],induced cellular detachment and apoptosis
same,Effect of Bcl-2 overexpression on induced PARP cleavage and p112-115/RB production,[10]; 15 μM,failed to block cleavage of PARP and production of p112-115/RB
same,Effect of Bcl-2 expression on induced apoptotic nuclear changes,"[10]; 15 μM, 8 h",did not inhibit the apoptotic nuclear changes
same,Cells exhibiting apoptosis-specific nuclear morphology,"[10]; Bcl-2-overexpressing Jurkat, 30 μM, 3.5 h",~100%
